What all share (experiment): relative viability (nuclei count vs DMSO), 5 days (fraction); higher = more cells survive
Compound in the assay “AZD6482 + Phenformin”: Cc1cc([C@@H](C)Nc2ccccc2C(=O)O)c2nc(N3CCOCC3)cc(=O)n2c1 [AZD6482] + N=C(N)NC(=N)NCCc1ccccc1 [Phenformin] (partner 250 µM)
The procedure, abridged: (§1)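 Each reported value is a median over duplicate plates. It expresses relative viability: treated-well nuclei count divided by vehicle-well nuclei count. Lung cancer cell lines in 1536-well plates were dosed by pin tool a day after seeding, alone with one drug or with a fixed anchor-drug dose plus five library-drug doses (not always all listed) in √10 steps, and nuclei were counted after 5 days.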

Compound in the assay “AZD6482 + Olaparib”: Cc1cc([C@@H](C)Nc2ccccc2C(=O)O)c2nc(N3CCOCC3)cc(=O)n2c1 [AZD6482] + O=C(c1cc(Cc2n[nH]c(=O)c3ccccc23)ccc1F)N1CCN(C(=O)C2CC2)CC1 [Olaparib] (partner 8 µM)
The procedure, abridged: as §1

Compound in assay [1]: COc1cc2nc(N3CCCN(C)CC3)nc(NC3CCN(Cc4ccccc4)CC3)c2cc1OC + CCNC(=O)c1noc(-c2cc(C(C)C)c(O)cc2O)c1-c1ccc(CN2CCOCC2)cc1 [Luminespib] (partner 0.01 µM)
The procedure, abridged:
as §1

Compound in the assay “AZD6482 + Palbociclib”: Cc1cc([C@@H](C)Nc2ccccc2C(=O)O)c2nc(N3CCOCC3)cc(=O)n2c1 [AZD6482] + CC(=O)c1c(C)c2cnc(Nc3ccc(N4CCNCC4)cn3)nc2n(C2CCCC2)c1=O [Palbociclib] (partner 0.5 µM)
The procedure, abridged:
as §1

With UMC-11, the relative viability with AZD6482 + Phenformin (first compound 0.08 µM) was 0.309; with AZD6482 + Phenformin (first compound 0.253 µM) it was 0.292; with AZD6482 + Phenformin (first compound 0.8 µM), 0.324; with AZD6482 + Phenformin (first compound 2.53 µM), 0.293; with AZD6482 + Phenformin (first compound 8 µM) it was 0.255; with AZD6482 + Olaparib (first compound 0.08 µM) it was 0.738. The relative viability came out at 0.358 with AZD6482 + Olaparib (first compound 0.253 µM); 0.357 with AZD6482 + Olaparib (first compound 0.8 µM); 0.345 in the assay with AZD6482 + Olaparib (first compound 2.53 µM); 0.338 with AZD6482 + Olaparib (first compound 8 µM); 1.06 in assay [1] (first compound 0.2 µM); 1.08 in assay [1] (first compound 0.6325 µM). Moreover, the relative viability in assay [1] (first compound 2 µM) amounted to 1.05; in assay [1] (first compound 6.325 µM), 0.816; in the assay with AZD6482 + Palbociclib (first compound 0.08 µM), 0.342; with AZD6482 + Palbociclib (first compound 0.253 µM) it was 0.297; with AZD6482 + Palbociclib (first compound 0.8 µM), 0.321; with AZD6482 + Palbociclib (first compound 8 µM), 0.324.
